According to patent US20110064713A1 (priority 2009, published 2011):

System: DU-145 cells
Format: cell-based, Human

## C=C1[C@@H](C)[C@H]2[C@H](Cc3ccccc3)NC(=O)[C@]23[C@H](OC(C)=O)/C=C/[C@@](C)(O)C(=O)[C@@H](C)C/C=C/[C@H]3[C@@H]1O [Cytochalasin-D]
  Relative Wound Density at 24 Hours, Mean: 3.3 ± 0.2
  Relative Wound Density at 24 Hours, Percent Relative to Media: 4%
  effect on cell migration: did not migrate
